Active and inactive are the calls of the source. The rule behind the calls is not given here.

The values that follow come from ChEMBL document CHEMBL6120971 (J Med Chem, 2024).

The target in data set [1] is T1, Protein cereblon/Hepatocyte growth factor receptor (Homo sapiens, UniProt P08581+Q96SW2). As to the kind of experiment: PROTAC activity at CRBN/c-MET in human NGEC cells assessed as induction of c-MET degradation upto 50 nM incubated for 24 hrs by Western blot analysis. The note with it: NGEC cell. In kind it is cell-based.
T1 sequence (P08581 25-1390 limits assumed): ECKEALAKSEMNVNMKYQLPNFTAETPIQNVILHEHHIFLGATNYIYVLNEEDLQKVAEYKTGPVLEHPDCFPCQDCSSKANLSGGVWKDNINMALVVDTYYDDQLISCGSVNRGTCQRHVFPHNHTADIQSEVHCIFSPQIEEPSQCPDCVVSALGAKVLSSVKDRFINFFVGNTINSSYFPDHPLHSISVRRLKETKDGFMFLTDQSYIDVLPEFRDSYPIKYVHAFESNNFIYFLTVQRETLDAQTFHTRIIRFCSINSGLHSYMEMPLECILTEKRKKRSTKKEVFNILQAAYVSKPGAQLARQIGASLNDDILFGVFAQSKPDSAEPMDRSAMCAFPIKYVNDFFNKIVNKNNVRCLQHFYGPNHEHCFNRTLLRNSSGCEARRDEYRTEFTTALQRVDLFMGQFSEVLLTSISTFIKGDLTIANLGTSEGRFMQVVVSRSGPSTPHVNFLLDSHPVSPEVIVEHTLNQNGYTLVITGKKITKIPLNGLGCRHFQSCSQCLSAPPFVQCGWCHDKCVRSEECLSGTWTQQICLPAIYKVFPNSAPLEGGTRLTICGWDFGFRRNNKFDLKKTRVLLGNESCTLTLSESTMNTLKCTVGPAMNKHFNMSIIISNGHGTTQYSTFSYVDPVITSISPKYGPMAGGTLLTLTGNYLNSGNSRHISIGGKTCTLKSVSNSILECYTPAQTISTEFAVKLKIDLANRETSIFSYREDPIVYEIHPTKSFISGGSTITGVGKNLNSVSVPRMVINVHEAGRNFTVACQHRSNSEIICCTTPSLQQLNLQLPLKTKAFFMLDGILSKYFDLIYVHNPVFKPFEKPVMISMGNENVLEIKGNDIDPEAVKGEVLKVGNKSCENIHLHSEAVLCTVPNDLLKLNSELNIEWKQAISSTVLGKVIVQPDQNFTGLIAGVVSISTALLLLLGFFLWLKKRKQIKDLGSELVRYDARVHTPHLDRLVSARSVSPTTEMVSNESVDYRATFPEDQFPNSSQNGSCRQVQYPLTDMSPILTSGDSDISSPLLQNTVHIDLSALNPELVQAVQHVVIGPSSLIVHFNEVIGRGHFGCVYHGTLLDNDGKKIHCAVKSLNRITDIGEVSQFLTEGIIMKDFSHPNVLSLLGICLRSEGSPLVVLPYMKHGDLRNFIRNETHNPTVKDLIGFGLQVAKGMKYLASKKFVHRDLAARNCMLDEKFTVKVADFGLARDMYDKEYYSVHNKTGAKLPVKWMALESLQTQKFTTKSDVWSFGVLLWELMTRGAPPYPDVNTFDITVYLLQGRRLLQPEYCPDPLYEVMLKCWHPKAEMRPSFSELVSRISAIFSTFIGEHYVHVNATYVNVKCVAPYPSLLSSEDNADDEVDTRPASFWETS
T1 sequence (Q96SW2 whole entry partner): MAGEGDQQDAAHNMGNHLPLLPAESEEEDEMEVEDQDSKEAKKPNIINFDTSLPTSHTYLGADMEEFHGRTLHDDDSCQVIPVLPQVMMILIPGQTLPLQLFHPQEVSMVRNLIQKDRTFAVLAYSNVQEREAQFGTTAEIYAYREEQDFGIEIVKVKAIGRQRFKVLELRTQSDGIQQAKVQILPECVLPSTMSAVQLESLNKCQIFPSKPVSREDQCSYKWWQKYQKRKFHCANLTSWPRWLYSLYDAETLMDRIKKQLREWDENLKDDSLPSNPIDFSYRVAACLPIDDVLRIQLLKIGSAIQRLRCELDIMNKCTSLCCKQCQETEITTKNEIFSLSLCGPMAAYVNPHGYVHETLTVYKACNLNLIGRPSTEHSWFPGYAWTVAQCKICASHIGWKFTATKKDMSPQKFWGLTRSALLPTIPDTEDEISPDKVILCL
In data set [2] the target is T1, Protein cereblon/Hepatocyte growth factor receptor. Put plainly: PROTAC activity at CRBN/c-MET in human MKN-45 cells assessed as induction of c-MET degradation at 100 nM preincubated with MG132 for 2 hrs followed by compound addition and measured after 24 hrs by Western blot analysis. In kind it is cell-based.
The nature of data set [3]: Cmax in male Sprague-Dawley rat at 10 mg/kg, iv measured after 24 hrs by LC-MS/MS analysis. The note with it: in vivo. In kind it is ADME, organism-based.
The target of data set [4] is T1, Protein cereblon/Hepatocyte growth factor receptor. Put plainly: PROTAC activity at CRBN/c-MET in human MKN-45 cells assessed as induction of c-MET degradation at 6.25 nM incubated for 24 hrs by Western blot analysis. In kind it is cell-based.
For data set [5] the target is unchanged. Put plainly: PROTAC activity at CRBN/c-MET in human MKN-45 cells assessed as induction of c-MET degradation at 6.25 to 100 nM incubated for 24 hrs by Western blot analysis. In kind it is cell-based. The note with it: dose 6.25-100 nM.
Data set [6] has the same target. As to the kind of experiment: In vivo PROTAC activity at CRBN/c-MET in BALB/c nude mouse xenografted with human MKN-45 cells assessed as decrease in c-MET protein level in tumor at 10 to 40 mg/kg, po administered once daily for 21 days and measured after 24 hrs post last dose by Western blot analysis. In kind it is functional, organism-based. The note with it: dose 10-40 mg/kg, time 22.0 day.

The subject of data set [7] is Hs746T. As to the kind of experiment: Inhibition of c-MET/Akt signaling pathway activation in human Hs746T cells at 12.5 to 200 nM incubated for 24 hrs by Western blot analysis. The note with it: dose 12.5-200 nM. In kind it is cell-based.
In data set [8] the test system is Mus musculus. As to the kind of experiment: Downregulation of c-MET protein level in BALB/c nude mouse lung xenografted with human MKN-45 cells at 10 mg/kg, po measured after 48 hrs by Western blot analysis. In kind it is functional, organism-based.
Data set [9] addresses T1, Protein cereblon/Hepatocyte growth factor receptor. As to the kind of experiment: PROTAC activity at CRBN/c-MET in human A549 cells assessed as induction of c-MET degradation at 12.5 to 200 nM incubated for 24 hrs by Western blot analysis. The note with it: dose 12.5-200 nM. In kind it is cell-based.
The nature of data set [10]: Downregulation of c-MET protein level in human MKN-45 cells assessed as residual activity at 100 nM incubated for 24 hrs by MS-based quantitative proteomics analysis relative to control. In kind it is functional.
The nature of data set [11]: Toxicity in BALB/c nude mouse xenografted with human MKN-45 cells assessed as effect on kidney morphology at 10 to 40 mg/kg, po administered once daily for 21 days by H and E staining based analysis. In kind it is organism-based. The note with it: in vivo, 504 h, dose 10-40 mg/kg, time 21 day.
The nature of data set [12]: AUC (0 to infinity) in male Sprague-Dawley rat at 10 mg/kg, po measured after 24 hrs by LC-MS/MS analysis. In kind it is ADME, organism-based. The note with it: in vivo.
Data set [13] relates to PC-9. As to the kind of experiment: Cell cycle arrest in human PC-9 cells assessed as accumulation of cells at G0/G1 phase incubated for 48 hrs by PI staining based flow cytometric analysis. In kind it is functional. The note with it: dose 3.125-50 nM.
The target in data set [14] is T1, Protein cereblon/Hepatocyte growth factor receptor. Put plainly: PROTAC activity at CRBN/c-MET in human MKN-45 cells assessed as induction of c-MET degradation at 100 nM preincubated with capmatinib for 2 hrs followed by compound addition and measured after 24 hrs by Western blot analysis. In kind it is cell-based.
A short description of data set [15]: Downregulation of c-MET protein level in human MKN-45 cells assessed as fold change at 100 nM incubated for 24 hrs by MS-based quantitative proteomics analysis relative to control. In kind it is functional.
Data set [16] deals with T1, Protein cereblon/Hepatocyte growth factor receptor. Put plainly: PROTAC activity at CRBN/c-MET in human MKN-45 cells assessed as induction of c-MET degradation by measuring maximal efficacy incubated for 24 hrs by Western blot analysis relative to control. In kind it is cell-based.

Regarding `O=C1CCC(N2C(=O)c3ccc(N4CCN(CC5CCN(C(=O)c6ccc(-c7cnc8ncc(Cc9ccc%10ncccc%10c9)n8n7)cc6F)CC5)CC4)cc3C2=O)C(=O)N1` (stereo unspecified), the Activity entry was “Weak_effect” in [1]; “Not active; Favorable Tissue Specificity Of Compound Observed” in [8]; 3.38% in data set [10]; “Non-toxic” in [11]; “Dose-dependent-effect” in [13]. For the same compound, the result in data set [2], in data set [9] and in data set [14] was inactive. The compound also registered a peak concentration (Cmax) in [3] of 1650 ng/mL. For the same compound, the outcome in data set [4], in [5] and in data set [6] was Active. Also, the inhibition entry in data set [7] was “Active”. In [12], the AUC(0-inf) was found to be 411 ng·h/mL. The “fold change (FC)” value in [15] is given as 29.6. Moreover, the Emax in data set [16] came out at 96.8%.
